Columns and labels:
Type in all cases: cell-based
[1] = system: plasmodium; assay: Malaria screen (SYBR green fluorescence, plasmodium parasitemia culture); conditions: 0.5% plasmodium parasitemia culture, 48 hours
Procedure: Compound was added to a 0.5% plasmodium parasitemia culture for 48 hours, then treated with SYBR green (a dye with marked fluorescence enhancement upon contact with plasmodium DNA) and the fluorescence was measured in drug treated versus untreated cells to determine inhibitory effects (Smilkstein, et al., “Simple and inexpensive fluorescence-based technique for high-throughput antimalarial drug screening,” Antimicrob Agents Chemother, 2004 May; 48(5):1803-6. doi: 10.1128/AAC.48.5.1803-1806.2004. PMID: 15105138: PMCID: PMC400546).

[2] = system: Hennes-20 cells; assay: Hennes-20 oncology screen (low vs high plating density, alamar Blue); conditions: 72 h, Hennes-20 cells, 72 hours compound incubation, alamar Blue; read-out: EC50
Procedure: All compounds mentioned as active were tested in Hennes. Select hits from the Hennes screen were sent for additional anti-cancer testing.
To screen compounds for oncology activity Hennes-20 cells were plated at low (500 cells/well) versus high (15,000 cells/well) densities and treated with DMSO (vehicle) or dose-titration of compounds. The rationale for this screen is that an intrinsically toxic compound should kill cells regardless of density, including in Hennes-20 cells. However, a compound that selectively triggers the arrest of proliferation will inhibit cell growth when plated at a low density will appear cytotoxic due to inhibition of cell growth when plated at a low density but will appear non-toxic to cells plated at a high density where the cells are approaching confluence and the readout detected by a cell viability assay is already close to the maximum.
To conduct the Hennes-20 screen, two 96 well plates were seeded with Hennes 20 cells in parallel where one was plated at a density of 500 cells/well and the other was plated at a density of 15,000 cells/well. 90 uL of minimum essential media was added to each well and plates were placed in a 37 degrees Celsius incubator for 24 hours. The next day, 10 ul of media containing dilutions of compound in DMSO were added to each plate. Six wells on each plate received 10 ul of media containing only DMSO. Each well was gently mixed 5 times with a 100 ul pipette. Plates were incubated at 37 degrees Celsius for 72 hours then 10 uL of alamar Blue was added to each well. Wells were mixed 5 times then incubated at 37 degrees Celsius for […]. Plates were then read at 530/590.
The rationale for the screen is as follows: Hennes-20 cells lack endogenous apoptosis. Cells plated at low density will proliferate and approach confluence in 72 hrs. A drug that arrests proliferation may have its proliferation blocking effect masked by the triggering of endogenous apoptosis. However, in the Hennes line, lacking endogenous apoptosis, such an arrest is manifest as a dose-dependent maintenance at low cell density. Since the high-density cells are plated close to confluence, the difference between Alamar Blue cell survival readings after 72 hrs reflects the ability of the drug to block proliferation in the low density-plated cells. In the high density-plated cells any diminution of Alamar Blue readout vs vehicle control is due to intrinsic toxicity, not proliferation arrest, since cells were already at confluence. Thus, a compound that appears toxic (low Alamar Blue readings after 72 hrs) on the low-density plate, but which appears non-toxic (high Alamar Blue readings after 72 hrs) on the high-density plate, must be arresting proliferation, since intrinsic compound toxicity should be observed at both low and high cell densities, not selectively on the low-density plate.

[3] = system: NL4-3 Rluc virus; assay: HIV screen (NL4-3 Rluc virus in MT-2 cells, luciferase readout); conditions: Human immunodeficiency virus 1, NL43, MT2, 96 h
Procedure: MT-2 cells were preseeded in 96-well plates in 100 uL of complete RPMI. Multiple concentrations of PAV-951 were serially diluted in DMSO then into an infection media prepared by diluting NL4-3 Rluc virus stock to 400 IU/100 uL with complete RPMI, which was transferred onto the MT-2 cells with a final MOI of 0.02 and final DMSO concentration of 1% in infected places. One well received DMSO only, instead of PAV-951, and one well received medium only for normalization and background collection. Cells were incubated at 37 degrees Celsius for 96 hours. 100 ul of medium was removed and discarded and 10 uL of 15 uM EnduRen luciferase substrate was added to each well, followed by incubation for 1.5 hours at 37 degrees Celsius. Plates were read on a luminescence plate reader. Bioluminescence intensity was read on a Synergy H1 BioTek plate reader. Averages and standard deviation for viral titer observed under different treatment conditions were calculated in Microsoft Excel and graphed as the percent inhibition in PAV-951 treated cells compared to untreated cells.

EC50 [1] [µM] | Structure (SMILES) | EC50 [2] [nM] | EC50 [3] [nM]
0.036 | c1ccc(CCNc2ncnc3cc(N4CCN(c5ccc6c(NCCc7ccccc7)ncnc6c5)CC4)ccc23)cc1 [Compound 1] | < 500 | 
0.032 | CC(C)CCNc1ncnc2cc(N3CCN(c4ccc5c(NCCc6ccccc6)ncnc5c4)CC3)ccc12 [Compound 11] | < 100 | 
0.028 | COc1ccc(CNc2ncnc3cc(N4CCN(c5ccc6c(NCc7ccc(OC)cc7)ncnc6c5)CC4)ccc23)cc1 [Compound 20] |  | 
0.068 | CC(C)CCN(C)c1ncnc2cc(N3CCN(c4ccc5c(N(C)CCC(C)C)ncnc5c4)CC3)ccc12 [Compound 26] |  | 
0.03 | c1cc(CCNc2ncnc3cc(N4CCN(c5ccc6c(NCCc7ccncc7)ncnc6c5)CC4)ccc23)ccn1 [Compound 33] | < 12500 | 
0.2 | CC(C)CCNc1ncnc2cc(N3CCN(c4ccc5ccn(CCC(C)C)c5c4)CC3)ccc12 [Compound 34] |  | 
0.76 | CC(C)CCNc1ncnc2cc(N3CCN(c4ccc5c(NCCC6CCNCC6)ncnc5c4)CC3)ccc12 [Compound 36] | < 12500 | 
1.4 | CN1CCC(Nc2ncnc3cc(N4CCN(c5ccc6c(NC7CCN(C)CC7)ncnc6c5)CC4)ccc23)CC1 [Compound 38] |  | 
3 | CC(C)CCn1ccc2cc(N3CCN(c4ccc5c(ccn5CCC(C)C)c4)CC3)ccc21 [Compound 39] |  | 
0.091 | c1ccc(CCNc2ncnc3cc(N4CCN(c5ccc6c(NCCc7ccccn7)ncnc6c5)CC4)ccc23)nc1 [Compound 40] | < 12500 | 
0.06 | c1cncc(CCNc2ncnc3cc(N4CCN(c5ccc6c(NCCc7cccnc7)ncnc6c5)CC4)ccc23)c1 [Compound 41] | < 12500 | 
> 10 | CC(C)CC(=O)Nc1ncnc2cc(N3CCN(c4ccc5c(NC(=O)CC(C)C)ncnc5c4)CC3)ccc12 [Compound 43] |  | 

Structure (SMILES) | EC50 [1] [µM] | EC50 [2] [nM] | EC50 [3] [nM]
Cn1cccc1CCNc1ncnc2cc(N3CCN(c4ccc5c(NCCc6cccn6C)ncnc5c4)CC3)ccc12 [Compound 5] | 0.031 | < 2500 | 190
CC(C)CCNc1ncnc2cc(N3CCN(c4ccc5c(NCCC(C)C)ncnc5c4)CC3)ccc12 [Compound 6] | 0.024 | < 500 | 340
CC(C)CCNc1ncnc2cc(N3CCNCC3)ccc12 [Compound 35] | 0.77 |  | 
Clc1ccc2c(N3CCN(c4ncnc5cc(Cl)ccc45)CC3)ncnc2c1 [Compound 46] | > 10 |  | 510
